Data on 51 molecules can be found in PubChem BioAssay AID449764 (Southern Research Specialized Biocontainment Screening …, 2010).

In the test the test system is Mycobacterium tuberculosis H37Rv growth inhibition, no glycerol. The test is described as follows: Confirmatory growth inhibition assay, Mycobacterium tuberculosis H37Rv, absence of glycerol (AID 449764).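 On all read-outs here: growth read after 7 days of incubation.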 Particulars: for IC90: measured here: IC90 growth inhibition.

A value given as a limit tells only on which side of the number the result lay.

The term IC50 denotes the concentration that gives 50% inhibition. What is called IC90 is the point of the concentration-response curve where the effect stands at 90%. A higher IC90 goes with weaker potency. On to `C=C1CCC[C@]2(C)C[C@H]3OC(=O)C(CNC(C)CCCC(C)C)[C@H]3CC12` (stereo partly specified), for which the IC50 was 23.4 µM and the IC90 worked out at 26.2 µM.
In the same order, the values of `O=C(CSc1nc2ncc(Br)cc2[nH]1)Nc1ccc2c(c1)OCO2` are 25.1 µM and more than 100 µM.
The matching figures for `O=C(/C=C/c1ccc(O)cc1)c1ccc(NC2=C(N3CCCCC3)C(=O)c3ccccc3C2=O)cc1`: 17.5 µM and 22.4 µM.
With `Cc1c([N+](=O)[O-])cnc(Sc2ccccc2)c1[N+](=O)[O-]`, the IC50 was 5.8 µM and the IC90 stood at 9.94 µM.
In the same order, the values of `CC1CCCC(C)N1C(=O)COC(=O)c1cc(-c2cccs2)nn1-c1ccccc1` (stereo unspecified) are 62.2 µM and 86.3 µM.
The matching figures for `COCCN(C(=O)C1CC(=O)N(Cc2ccccc2)C1)c1nc(-c2ccc([N+](=O)[O-])cc2)cs1` (stereo unspecified): 28.3 µM and more than 100 µM.
The matching figures for `CC(C)(C)c1ccc(C(=O)CSc2n[nH]c(=O)[nH]c2=O)cc1`: 16.4 µM and 28.6 µM.
For the molecule `COc1ccc(-c2c(C#N)c(SCC(=O)c3cc4ccccc4oc3=O)nc(C)c2C(=O)Nc2ccccc2)cc1`, the IC50 was 72.3 µM and the IC90 is more than 100 µM.
The matching figures for `Cc1ccc(NCCC(=O)c2ccc(Br)cc2)cc1`: 26.4 µM and 43.8 µM.
In the same order, the values of `O=C(NCCCN1CCOCC1)c1cc2c([nH]c3ccccc32)c(-c2cccc(Br)c2)n1` are 18.6 µM and 24.3 µM.
Regarding `O=c1oc2ccccc2c2c1nc(C(F)(F)F)n2-c1ccccc1`, the IC50 is 13.9 µM and the IC90 was determined as 23.8 µM.
For the molecule `CCCCNC(=S)N(C)/N=C/c1ccc2c(c1)OCO2`, the IC50 is 11.8 µM and the IC90 was determined as 21.6 µM.
In the same order, the values of `Cc1cc(NC(=O)CCl)no1` are 2.63 µM and 5.19 µM.
Turning to `c1ccc(-c2ccccc2OCCCCn2ccnc2)cc1`, the IC50 was 23.3 µM and the 90% effect concentration (IC90) stood at 26.9 µM.
With `CC(=O)c1ccc(N2CCC(c3cc(-c4ccc(Cl)cc4Cl)n[nH]3)CC2)c([N+](=O)[O-])c1`, the IC50 is 24.3 µM and the IC90 is more than 100 µM.
With `COC(=O)C(C)Oc1cc(C)ccc1COc1ccc(-n2nc(C)n(C(F)F)c2=O)cc1` (stereo unspecified), the IC50 is 21.3 µM and the 90% effect concentration (IC90) is 27.5 µM.
The matching figures for `COc1ccc(C(=O)C[n+]2ccc3c(c2)nc(-c2cc(OC)c(OC)cc2OC)n3C)cc1`: 11.6 µM and 13.1 µM.
Take `CC(C)C[C@H](NC(=O)c1nc[nH]c1C(=O)NC1CCN(C(=O)OC(C)(C)C)CC1)C(=O)OCc1ccccc1`: the IC50 was 21.8 µM and the IC90 turned out to be 29.6 µM.
On to `CC(Sc1nnc(NC2CCCCC2)s1)C(=O)Nc1ccc2c(c1)C(=O)c1ccccc1C2=O` (stereo unspecified), for which the IC50 is 11.2 µM and the IC90 came out at 14.4 µM.
The matching figures for `Oc1cccc(-c2nc3ccc4ccccc4c3c3c2CCC3)c1`: 32.4 µM and 54.3 µM.
In the same order, the values of `C/C(=N\N=C(/N)SC1CC(=O)N(c2ccc(Cl)cc2)C1=O)c1cccs1` (stereo unspecified) are 32.8 µM and more than 100 µM.
With `CC(C)C1N=C(c2ccc3c(c2)OCO3)CC(c2ccccc2O)N1` (stereo unspecified), the IC50 was 44.7 µM and the IC90 was determined as 50.9 µM.
Turning to `Cc1c(OCc2ccccc2)c(=O)ccn1Cc1ccc(Cl)cc1`, the IC50 was 57.6 µM and the IC90 came to 95.9 µM.
The matching figures for `CCOC(=O)COc1ccc2c(c1)C(=O)CC(C)(c1cccnc1)O2` (stereo unspecified): 13.4 µM and 32.5 µM.
In the same order, the values of `N#C/C(N=Nc1ccccc1O)=N\Nc1ccccc1O` are 2.25 µM and 3.64 µM.
In the same order, the values of `CN(C(=S)NC(=O)c1ccc(Cl)cc1)C1CCCCC1` are 9.46 µM and 14.7 µM.
On to `Cn1nc(-c2ccc(N3CCCCC3)c(NC(=O)c3ccco3)c2)c2ccccc2c1=O`, for which the IC50 is 8.18 µM and the IC90 amounted to 12.2 µM.
The matching figures for `Cc1ccn2nc(S(=O)(=O)Nc3c(F)cccc3F)nc2n1`: 9.62 µM and 11.5 µM.
With `O=C(NCCc1ccccc1)[C@@H]1CC=C[C@@H]2CCN(Cc3ccc(Cl)c(Cl)c3)C(=O)[C@@H]21`, the IC50 is 63.8 µM and the IC90 was determined as 85.5 µM.
The matching figures for `Cc1ccc(NCc2ccc(O)c3ncccc23)cc1C`: 96.3 µM and more than 100 µM.
As to `CCOC(=O)C1CCCc2c1[nH]c1c(C(N)=O)cccc21` (stereo unspecified), the IC50 is 8.59 µM and the IC90 turned out to be 17.3 µM.
On to `O=C1c2ccccc2S(=O)(=O)c2cc(C(=O)N3CCN(c4c(Cl)cncc4Cl)CC3)ccc21`, for which the IC50 is 34.8 µM and the IC90 worked out at 52.2 µM.
As to `CCOC(=O)[C@@H]1[C@H]2COc3cc(OC)ccc3[C@H]2N2C(=O)N(c3ccc(C(F)(F)F)cc3)C(=O)[C@]12C`, the IC50 is 5.78 µM and the IC90 was 6.27 µM.
With `CSc1cccc(CNC(=O)C2CCC(=O)N(Cc3cccc(C(F)(F)F)c3)C2)c1` (stereo unspecified), the IC50 was 36.9 µM and the IC90 is 41.8 µM.
For the molecule `Cc1cccc(/C=c2\s/c(=C\C(=O)C(C)(C)C)[nH]c2=O)c1`, the IC50 was 12.4 µM and the IC90 worked out at 31.7 µM.
In the same order, the values of `N#CCn1c(CCl)nc2ccccc2c1=O` are 22.8 µM and 25.8 µM.
The molecule `Oc1ccc2ccccc2c1C1Nc2cccc3cccc(c23)N1` came in with an IC90 of more than 100 µM.
As for `CCOC(=O)Cn1nc(-c2ccccc2)nc1-c1ccccc1`, the IC50 was 13.1 µM and the IC90 turned out to be 29.4 µM.
For the molecule `O=C(Nc1nc2ccc(SC(F)F)cc2s1)c1ccc(NS(=O)(=O)c2ccc(F)c(F)c2)cc1`, the IC50 was 11.9 µM and the IC90 was determined as 18.9 µM.
In the case of `COC(=O)Cn1nc(-c2ccccc2)c2cc(Cl)ccc21`, the IC50 is 22 µM and the IC90 is more than 100 µM.
The matching figures for `COC(=O)c1ccc(-n2cnc3ccccc32)nc1`: 17.7 µM and 39.5 µM.
Regarding `Cc1nn(-c2ccccc2)c(Cl)c1/C=C/C(=O)c1ccccc1`, the IC50 is 74.9 µM and the IC90 amounted to 97.2 µM.
The matching figures for `C[C@]12C=CC(=O)C=C1CC[C@@H]1C2=CC[C@]2(C)[C@@H](C(=O)CN3CCN(c4cc(N5CCCC5)nc(N5CCCC5)n4)CC3)CC[C@@H]12`: 38.5 µM and 55.9 µM.
For the molecule `Cc1cc(-c2ccc(Cl)cc2)c2cnn(C(C)C)c2n1`, the IC50 was 38.9 µM and the IC90 stood at 58.1 µM.
With `O=[N+]([O-])c1ccc(C2CC(c3ccccc3)=Nc3ccccc3S2)cc1` (stereo unspecified), the IC50 was 6.28 µM and the IC90 came to 7.31 µM.
In the same order, the values of `O=C(OCc1ccc([N+](=O)[O-])cc1)c1cc2ccccc2oc1=O` are 12 µM and more than 100 µM.
For the molecule `COC(=O)[C@H](CC(C)C)NC(=O)c1cc2c(cn1)[nH]c1ccccc12`, the IC50 was 19.9 µM and the IC90 worked out at 39.8 µM.
In the same order, the values of `Nc1c(C(=O)OCC2CCCO2)c2nc3ccccc3nc2n1C1CCCC1` (stereo unspecified) are 60.7 µM and 86.8 µM.
As for `c1nc2n(n1)C1=C(CCCC1)C1(CCCCC1)N2`, the IC50 was 29.8 µM and the IC90 stood at 44.3 µM.
In the case of `CCOC(=O)c1csc(-c2snnc2C)n1`, the IC50 is 28.4 µM and the IC90 is more than 100 µM.
For the molecule `CCOC(=O)CNC(=S)n1cnc(N)n1`, the IC50 is 45.8 µM and the IC90 was more than 100 µM.
